ChEMBL document CHEMBL3526034 (Drug Metab Dispos, 2013)

How the values were obtained:
[1] = target: CYP2C19 (Homo sapiens, UniProt P33261); test: Inhibition of CYP2C19 in human liver microsomes using S-mephenytoin as substrate at 100 uM preincubated for 20 mins with substrate prior to initiation of reaction with NADPH by HPLC analysis; assay type: ADME; details: probe S-mephenytoin
[2] = target: UGT1A1 (Homo sapiens, UniProt P22309); test: Inhibition of human recombinant UGT1A1 expressed in supersomes assessed as scopoletin glucuronidation at 100 uM by fluorescence analysis; assay type: ADME; details: probe scopoletin
[3] = system: Hepatocyte; test: Induction of CYP2B6 mRNA expression in human hepatocytes at 1 to 40 uM after 48 hrs by real time PCR analysis; assay type: ADME, cell-based
[4] = Drug excretion in human feces at 20 mg, po; assay type: ADME, tissue-based; details: faeces, read-out: Drug excretion
[5] = target: T1, Cytochrome P450 2B6 (Homo sapiens, UniProt P20813); test: Metabolism-dependent inhibition of CYP2B6 in human liver microsomes using bupropion as substrate preincubated for 20 mins with NADPH prior to initiation of reaction with probe substrate by HPLC analysis; assay type: ADME
T1 sequence (P20813 whole entry): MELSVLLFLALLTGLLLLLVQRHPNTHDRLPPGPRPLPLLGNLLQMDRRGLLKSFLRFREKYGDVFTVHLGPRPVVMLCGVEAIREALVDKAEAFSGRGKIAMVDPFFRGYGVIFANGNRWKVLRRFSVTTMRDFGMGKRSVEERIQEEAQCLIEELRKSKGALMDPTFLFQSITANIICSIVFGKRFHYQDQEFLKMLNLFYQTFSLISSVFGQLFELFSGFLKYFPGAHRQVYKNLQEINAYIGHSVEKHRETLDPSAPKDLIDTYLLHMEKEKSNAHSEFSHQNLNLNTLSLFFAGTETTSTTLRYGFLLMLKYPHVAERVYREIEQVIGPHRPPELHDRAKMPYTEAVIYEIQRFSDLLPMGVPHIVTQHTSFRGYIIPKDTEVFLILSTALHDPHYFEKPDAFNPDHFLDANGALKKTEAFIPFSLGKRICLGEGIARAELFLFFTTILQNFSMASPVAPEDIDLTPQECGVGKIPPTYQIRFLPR

[6] = target: Solute carrier family 22 member 2 (Homo sapiens, UniProt O15244); test: Inhibition of human OCT2 expressed in MDCK2 cells using [14C]metformin as substrate by liquid scintillation counting analysis; assay type: ADME, cell-based, MDCK-II
[7] = In vitro passive membrane permeability across dog MDCK2 cells at 3 uM using fasted state-simulated intestinal fluid buffer at pH 7.4 on donor side and 1% human serum albumin at pH 7.4 on receiver side by liquid scintillation counting analysis; assay type: ADME, cell-based, Canis lupus familiaris, MDCK-II; details: MDCK, read-out: permeability
[8] = target: ATP-dependent translocase ABCB1 (Homo sapiens, UniProt P08183); test: Inhibition of MDR1 (unknown origin) expressed in MDCK2 cells assessed as basolateral to apical transport of [3H]digoxin at 100 uM after 90 mins by liquid scintillation counting analysis; assay type: ADME, cell-based; details: mdck-ii, 1.5 h
[9] = target: T2, Cytochrome P450 2C8 (Homo sapiens, UniProt P10632); test: Inhibition of CYP2C8 in human liver microsomes using rosiglitazone as substrate preincubated for 20 mins with substrate prior to initiation of reaction with NADPH by HPLC analysis; assay type: ADME
T2 sequence (P10632 whole entry): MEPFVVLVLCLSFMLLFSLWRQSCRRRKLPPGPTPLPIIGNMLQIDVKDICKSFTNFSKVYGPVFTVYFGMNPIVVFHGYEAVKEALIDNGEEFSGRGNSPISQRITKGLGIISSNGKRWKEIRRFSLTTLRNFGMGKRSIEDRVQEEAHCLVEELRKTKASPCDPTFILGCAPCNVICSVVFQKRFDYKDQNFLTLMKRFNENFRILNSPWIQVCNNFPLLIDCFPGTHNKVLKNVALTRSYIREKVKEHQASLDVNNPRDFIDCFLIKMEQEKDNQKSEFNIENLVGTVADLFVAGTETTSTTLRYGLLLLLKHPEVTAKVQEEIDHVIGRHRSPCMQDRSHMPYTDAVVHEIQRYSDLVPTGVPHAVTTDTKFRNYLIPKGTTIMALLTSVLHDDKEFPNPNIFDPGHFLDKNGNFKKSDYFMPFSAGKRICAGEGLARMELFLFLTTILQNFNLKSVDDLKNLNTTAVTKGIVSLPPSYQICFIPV

[10] = target: T3, UDP-glucuronosyltransferase 1A1 (Homo sapiens, UniProt P22309); test: (§1) Drug metabolism assessed as UDPGA-fortified human recombinant UGT1A1-mediated DTG glucuronide metabolite ((2S,3S,4S,5R,6S)-6-((4R,12aS)-9-(2,4-difluorobenzylcarbamoyl)-4-methyl-6,8-dioxo-3,4,6,8,12,12a-hexahydro-2H-[1,3]oxazino[3,2-d]pyrido[1,2-a]pyrazin-7-yloxy)-3,4,5-trihydroxytetrahydro-2H-pyran-2-carboxylic acid) formation at 16 uM after 120 mins by radio-HPLC analysis; assay type: ADME; details: recombinant enzyme
T3 sequence (P22309 whole entry): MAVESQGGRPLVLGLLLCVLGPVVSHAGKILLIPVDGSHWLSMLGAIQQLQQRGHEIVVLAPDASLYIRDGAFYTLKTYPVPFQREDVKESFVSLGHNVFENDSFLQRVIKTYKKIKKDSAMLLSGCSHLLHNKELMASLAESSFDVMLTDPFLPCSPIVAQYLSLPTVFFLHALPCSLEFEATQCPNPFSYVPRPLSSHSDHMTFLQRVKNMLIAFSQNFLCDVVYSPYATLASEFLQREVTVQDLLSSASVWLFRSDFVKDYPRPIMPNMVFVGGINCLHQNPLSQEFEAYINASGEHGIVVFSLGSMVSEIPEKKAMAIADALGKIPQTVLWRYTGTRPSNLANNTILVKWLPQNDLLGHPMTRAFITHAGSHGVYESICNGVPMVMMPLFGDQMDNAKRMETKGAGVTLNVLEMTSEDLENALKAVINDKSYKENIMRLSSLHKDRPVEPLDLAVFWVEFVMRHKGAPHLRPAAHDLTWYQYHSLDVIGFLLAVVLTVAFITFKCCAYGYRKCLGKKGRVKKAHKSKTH

[11] = target: UDP-glucuronosyltransferase 1A9 (Homo sapiens, UniProt O60656); test: as §1, with “UGT1A9-mediated” for “UGT1A1-mediated”; assay type: ADME; details: recombinant enzyme
[12] = as §1, with “metabolism in human hepatocytes” for “metabolism”, “as” for “as UDPGA-fortified human recombinant UGT1A1-mediated”, “50” for “16”, “4 to 20 hrs” for “120 mins”; assay type: ADME, cell-based, Hepatocyte
[13] = target: UDP-glucuronosyltransferase 1A6 (Homo sapiens, UniProt P19224); test: as §1, with “UGT1A6-mediated” for “UGT1A1-mediated”; assay type: ADME; details: recombinant enzyme
[14] = target: UDP-glucuronosyltransferase 2B4 (Homo sapiens, UniProt P06133); test: as §1, with “UGT2B4-mediated” for “UGT1A1-mediated”; assay type: ADME; details: recombinant enzyme
UDP-glucuronosyltransferase 2B4, sequence (P06133 whole entry): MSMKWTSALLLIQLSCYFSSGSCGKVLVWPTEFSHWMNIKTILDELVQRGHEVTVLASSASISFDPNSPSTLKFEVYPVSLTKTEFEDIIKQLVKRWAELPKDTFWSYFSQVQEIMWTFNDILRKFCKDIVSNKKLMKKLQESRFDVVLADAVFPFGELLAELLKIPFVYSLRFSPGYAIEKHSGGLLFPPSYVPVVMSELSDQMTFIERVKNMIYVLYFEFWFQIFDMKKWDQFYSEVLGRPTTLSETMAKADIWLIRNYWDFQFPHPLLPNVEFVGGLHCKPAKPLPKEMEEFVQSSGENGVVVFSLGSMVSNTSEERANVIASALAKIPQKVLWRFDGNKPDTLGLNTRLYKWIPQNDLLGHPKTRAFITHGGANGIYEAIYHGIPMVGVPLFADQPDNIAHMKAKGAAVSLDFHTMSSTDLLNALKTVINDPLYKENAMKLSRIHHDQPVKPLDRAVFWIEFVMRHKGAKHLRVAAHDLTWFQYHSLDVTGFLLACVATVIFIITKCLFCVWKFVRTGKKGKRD

ATP-dependent translocase ABCB1, sequence (P08183 whole entry): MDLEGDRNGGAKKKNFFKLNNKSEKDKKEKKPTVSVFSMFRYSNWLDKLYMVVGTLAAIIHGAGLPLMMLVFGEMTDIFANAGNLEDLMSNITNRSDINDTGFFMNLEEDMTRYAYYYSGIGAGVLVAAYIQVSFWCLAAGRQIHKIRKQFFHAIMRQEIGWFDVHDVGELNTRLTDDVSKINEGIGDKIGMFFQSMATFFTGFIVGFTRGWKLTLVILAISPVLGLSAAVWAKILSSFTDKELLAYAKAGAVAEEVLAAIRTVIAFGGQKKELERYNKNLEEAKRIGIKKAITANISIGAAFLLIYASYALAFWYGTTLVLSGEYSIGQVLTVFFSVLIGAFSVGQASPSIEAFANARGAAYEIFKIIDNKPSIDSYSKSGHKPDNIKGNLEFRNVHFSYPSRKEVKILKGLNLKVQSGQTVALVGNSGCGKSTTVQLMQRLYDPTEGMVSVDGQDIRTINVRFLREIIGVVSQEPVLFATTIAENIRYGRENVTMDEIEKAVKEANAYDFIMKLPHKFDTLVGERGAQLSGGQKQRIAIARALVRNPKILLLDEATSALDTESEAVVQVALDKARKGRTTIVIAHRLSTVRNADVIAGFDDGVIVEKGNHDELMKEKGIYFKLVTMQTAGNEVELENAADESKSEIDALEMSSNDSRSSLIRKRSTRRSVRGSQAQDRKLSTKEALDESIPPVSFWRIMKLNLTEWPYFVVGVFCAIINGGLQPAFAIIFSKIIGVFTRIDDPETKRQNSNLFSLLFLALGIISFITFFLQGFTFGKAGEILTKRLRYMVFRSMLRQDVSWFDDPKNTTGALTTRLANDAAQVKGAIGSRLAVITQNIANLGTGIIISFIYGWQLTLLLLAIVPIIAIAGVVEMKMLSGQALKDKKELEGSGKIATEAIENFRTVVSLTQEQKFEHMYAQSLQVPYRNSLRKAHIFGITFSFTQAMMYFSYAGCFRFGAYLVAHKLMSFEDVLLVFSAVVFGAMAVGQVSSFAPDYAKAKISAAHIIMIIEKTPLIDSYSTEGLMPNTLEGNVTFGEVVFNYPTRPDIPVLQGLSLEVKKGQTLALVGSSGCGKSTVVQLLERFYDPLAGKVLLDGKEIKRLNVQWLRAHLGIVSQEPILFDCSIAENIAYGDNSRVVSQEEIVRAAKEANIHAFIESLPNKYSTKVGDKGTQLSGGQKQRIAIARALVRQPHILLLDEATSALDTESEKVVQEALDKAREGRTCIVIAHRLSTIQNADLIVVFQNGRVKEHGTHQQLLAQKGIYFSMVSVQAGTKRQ
CYP2C19, sequence (P33261 whole entry): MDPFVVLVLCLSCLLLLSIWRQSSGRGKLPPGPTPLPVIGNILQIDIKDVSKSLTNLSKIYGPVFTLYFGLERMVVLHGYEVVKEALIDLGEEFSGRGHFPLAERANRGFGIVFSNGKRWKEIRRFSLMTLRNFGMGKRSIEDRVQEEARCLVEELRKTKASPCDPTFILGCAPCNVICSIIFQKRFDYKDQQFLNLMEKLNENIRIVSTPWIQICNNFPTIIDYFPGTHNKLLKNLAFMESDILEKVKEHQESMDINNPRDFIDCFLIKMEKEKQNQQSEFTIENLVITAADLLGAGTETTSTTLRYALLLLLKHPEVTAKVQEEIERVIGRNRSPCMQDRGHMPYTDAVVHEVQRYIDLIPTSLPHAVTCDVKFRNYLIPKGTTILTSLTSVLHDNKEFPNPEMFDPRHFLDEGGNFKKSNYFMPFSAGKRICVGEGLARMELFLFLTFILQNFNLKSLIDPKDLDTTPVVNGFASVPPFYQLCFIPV
UDP-glucuronosyltransferase 1A9, sequence (O60656 whole entry): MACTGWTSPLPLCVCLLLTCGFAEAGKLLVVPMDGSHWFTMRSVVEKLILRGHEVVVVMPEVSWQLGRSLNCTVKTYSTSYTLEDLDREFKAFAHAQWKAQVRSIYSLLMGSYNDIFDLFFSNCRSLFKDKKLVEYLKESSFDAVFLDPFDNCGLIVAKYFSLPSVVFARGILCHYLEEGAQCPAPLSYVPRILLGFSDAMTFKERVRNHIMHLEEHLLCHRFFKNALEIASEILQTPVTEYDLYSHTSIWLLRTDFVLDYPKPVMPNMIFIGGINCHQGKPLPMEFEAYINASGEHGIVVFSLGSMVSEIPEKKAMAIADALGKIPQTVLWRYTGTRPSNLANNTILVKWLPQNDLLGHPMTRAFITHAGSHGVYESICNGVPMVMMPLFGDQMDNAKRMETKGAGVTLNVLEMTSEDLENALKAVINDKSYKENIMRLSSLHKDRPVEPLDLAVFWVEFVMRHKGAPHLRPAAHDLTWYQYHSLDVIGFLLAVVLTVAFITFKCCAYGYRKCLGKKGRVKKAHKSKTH
Solute carrier family 22 member 2, sequence (O15244 whole entry): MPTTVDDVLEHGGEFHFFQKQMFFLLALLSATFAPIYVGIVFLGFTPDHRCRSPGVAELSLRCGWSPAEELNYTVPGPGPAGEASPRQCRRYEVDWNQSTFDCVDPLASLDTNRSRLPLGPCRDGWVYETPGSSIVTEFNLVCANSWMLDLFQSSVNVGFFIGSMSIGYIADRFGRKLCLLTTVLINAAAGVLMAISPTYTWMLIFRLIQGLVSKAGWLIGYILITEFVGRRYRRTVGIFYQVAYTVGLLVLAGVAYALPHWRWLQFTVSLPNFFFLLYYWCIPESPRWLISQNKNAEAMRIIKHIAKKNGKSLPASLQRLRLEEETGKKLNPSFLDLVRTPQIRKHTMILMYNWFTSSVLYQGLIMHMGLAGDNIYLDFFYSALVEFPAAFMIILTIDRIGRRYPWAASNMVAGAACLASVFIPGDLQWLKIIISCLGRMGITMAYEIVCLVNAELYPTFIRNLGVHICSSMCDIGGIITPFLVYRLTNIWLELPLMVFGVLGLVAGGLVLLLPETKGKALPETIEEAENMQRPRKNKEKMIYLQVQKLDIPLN
UDP-glucuronosyltransferase 1A6, sequence (P19224 whole entry): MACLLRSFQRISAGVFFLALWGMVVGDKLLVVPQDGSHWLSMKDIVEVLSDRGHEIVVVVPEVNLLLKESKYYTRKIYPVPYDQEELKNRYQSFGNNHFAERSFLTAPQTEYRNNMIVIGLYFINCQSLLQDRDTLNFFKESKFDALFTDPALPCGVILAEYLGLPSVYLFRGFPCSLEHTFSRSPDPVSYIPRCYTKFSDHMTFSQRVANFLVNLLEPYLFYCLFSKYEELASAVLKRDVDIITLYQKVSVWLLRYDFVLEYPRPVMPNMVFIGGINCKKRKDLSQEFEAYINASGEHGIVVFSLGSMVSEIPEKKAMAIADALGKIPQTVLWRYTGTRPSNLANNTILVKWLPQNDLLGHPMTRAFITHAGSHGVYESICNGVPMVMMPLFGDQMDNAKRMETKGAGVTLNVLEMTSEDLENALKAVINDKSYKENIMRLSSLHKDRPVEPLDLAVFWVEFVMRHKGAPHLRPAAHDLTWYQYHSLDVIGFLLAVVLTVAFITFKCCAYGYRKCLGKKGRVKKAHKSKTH

C[C@@H]1CCO[C@H]2Cn3cc(C(=O)NCc4ccc(F)cc4F)c(=O)c(O)c3C(=O)N12 [DOLUTEGRAVIR]
inhibition at 100 µM [1]: 20%
inhibition at 100 µM [2]: 33%
Activity [3]: Toxic
dose excreted [4]: 3.1%
IC50 [5]: > 100 µM
IC50 [6]: 1.9 µM
Papp at 3 µM [7]: 25.2 ×10⁻⁶ cm/s
inhibition (INH) [8]: 29%
IC50 [9]: > 100 µM
Drug metabolism [10]: metabolite_detected
Drug metabolism [11]: metabolite_detected
Drug metabolism [12]: metabolite_detected
Drug metabolism [13]: metabolite_not_detected
Drug metabolism [14]: metabolite_not_detected
